One compound from PMC11872507, “Lasso peptides sviceucin and siamycin I exhibit anti-virulence activity and restore vancomycin effectiveness in vancomycin-resistant pathogens” (iScience, 2025) can be followed below.

For assay [1], the system named is E. faecalis V583. The experiment in a line: Checkerboard broth microdilution. Type of assay: cell-based. The settings on record: Enterococcus faecalis, control, vancomycin alone. From the text: Since sviceucin and siamycin I inhibit signal transduction of the FsrAC TCS in vivo, we next wondered if the lasso peptides would also target other TCSs. In E. faecalis, the VanRS TCS regulates resistance to vancomycin, an antibiotic of clinical importance. The minimum inhibitory concentrations (MICs) of this antibiotic in combination with the lasso peptides were thus determined for clinically relevant Enterococcus and S. aureus strains from our in-house collection. The chosen concentrations of the peptides (2 μM of siamycin I and 10 μM of sviceucin) are the lowest subinhibitory concentrations that allow the maximum synergy with vancomycin, as determined by the checkerboard method on the E. faecalis V583 strain (Table S1).

Another assay concerns VanS-VanRB strain. The experiment in a line: Vancomycin MIC, microdilution. The settings on record: Enterococcus faecalis; vanSB replaced by vanS in V583. Format: cell-based. As for the experimental part:
(§1) To further support this, we investigated the origin of the different activity spectra of sviceucin and siamycin I between VanA- and VanB-type vancomycin resistance. We first replaced vanSB by vanS in the VanB-type strain E. faecalis V583. VanS-VanRB strain was sensitive to vancomycin (MIC = 2 μg/mL), probably because of an impaired signal transduction between VanS and VanRB. To bypass this issue, we replaced the vanRBSB-PvanYB fragment by the vanRS-PvanH fragment from a VanA-type operon, resulting in a VanA-type transduction system fused to VanB-type resistance genes.

The test system of a further assay is V583 ΔvanB::vanA. Put plainly: Vancomycin MIC, microdilution. Type of assay: cell-based. The settings on record: Enterococcus faecalis; vancomycin alone (control). As for the experimental part:
as §1

In another assay the test system is vanYB in Svic1. The experiment in a line: vanYB expression by RT-qPCR. Type of assay: cell-based, Enterococcus faecalis. The conditions noted are these: vancomycin 1 μg/mL alone. As for the experimental part: (§2) For gelE gene expression measurements, bacteria were cultured in GM17 medium supplemented with the 1:1 water:methanol formulation or either sviceucin at 10 μM, or siamycin I at 1 μM. Cultures were incubated at 37°C until reaching OD600 of 0.5. For vanY gene expression measurements, bacteria were cultured in GM17 medium supplemented with either vancomycin at 1 μg/mL or sviceucin at 10 μM and vancomycin at 1 μg/mL at 37°C to induce the expression of van genes until reaching OD600 of 0.5. Bacteria were recovered by centrifugation at 4200 RCF for 2 min. Once the supernatant was discarded, the pellets were stored at −80°C. Pellets were resuspended in TE buffer or ML lysis buffer, depending on kit used, and transferred in Lysis Matrix B Tubes (MP Biomedicals, USA) before cell lysis with a FastPrep-24 5G (2 × 40 s at 6 m/s, 5 min on ice in-between cycles) (MP Biomedicals, USA). After bead-beating lysis, RNA extraction was performed using Direct-Zol RNA Miniprep kit (Zymo Research, USA) for gelE gene expression measurements or NucleoSpin^Ⓡ miRNA Miniprep kit (Macherey-Nagel, Germany) for vanY gene expression measurements, according to the manufacturers’ instructions. Retrotranscription was performed using QuantiTect Reverse transcription (QIAGEN, Germany). qPCR on cDNA was performed with GoTaq qPCR (Promega, USA). […] Data were analyzed with CFX Manager software (Biorad, USA).

The test system of assay [2] is vanYB in E. faecalis V583. The experiment in a line: vanYB expression by RT-qPCR. Type of assay: cell-based, Enterococcus faecalis. The settings on record: vancomycin 1 μg/mL alone. The procedure: as §2
Another assay has as its system Svic1. The experiment in a line: Quantification of D-Ala-D-Lac muropeptides by LCMS. Format: cell-based, Enterococcus faecalis. The conditions noted are these: vancomycin alone, 2 μg/mL; means of at least two biological replicates. The procedure: (§3) Extraction of muropeptides was performed as previously described[64] with modifications. Bacteria were cultured overnight in GM17 medium supplemented with 2 μg/mL of vancomycin (Merck, USA), 10 μM of sviceucin, or 2 μM of siamycin I. Bacteria were pelleted by centrifugation for 5 min at 10000 rpm and then resuspended in 1 mL of 0.1 M Tris-HCl (pH 6.8), 0.25% SDS. Samples were boiled for 20 min in a heating block (Biolock Scientific, USA) and then centrifuged for 5 min at 10000 rpm. The pellets were washed twice with 1 mL of cold ultrapure water before sonication for 30 min (Branson 1800 Cleaner, USA). 500 μL of DNase 15 μg/mL and RNase 60 μg/mL (Sigma-Aldrich, USA) were added to each sample then incubated at 37°C for 60 min. […] Pellets were resuspended in 12,5 mM sodium phosphate buffer (pH 5.5), then muropeptides concentration was determined and standardized to an OD578 of 3. […]
(§4) LCMS analysis was performed on an ultra-high performance LC system (Ultimate 3000 RSLC, Thermo Scientific, USA) coupled to a high-resolution electrospray ionization-quadrupole-time of flight mass spectrometer (MaXis II ETD, Bruker Daltonics, USA). […] Mass data were analyzed by Data Analysis 4.4 (Bruker Daltonics, USA). For quantification, the m/z corresponding to singly- and doubly-charged species of monomer, as well as doubly- and triply-charged species of dimers of muropeptides were manually searched. […]

Assay [3] concerns E. faecalis V583. The experiment in a line: Quantification of D-Ala-D-Lac muropeptides by LCMS. Format: cell-based, Enterococcus faecalis. The settings on record: vancomycin alone, 2 μg/mL; means of at least two biological replicates. As for the experimental part:
as §3, §4

Another assay concerns E. faecalis JH2-2 08048. The experiment in a line: microbe, parasite or virus in culture. Format: cell-based, Enterococcus faecalis. The conditions noted are these: Enterococcus faecalis, JH2208048, read-out: Vancomycin MIC. As for the experimental part: The MIC of vancomycin was determined by the microdilution method described in the guidelines of the European Committee on Antimicrobial Susceptibility Testing (EUCAST 2024, v14.0 Breakpoint Tables).[58] For enterococci, GM17 medium was used instead of CAMH medium since enterococci cannot degrade starch, the main carbohydrate of MH medium. 2-fold serial dilutions of the tested antibiotic were performed to obtain concentrations ranging from 0.5 to 512 μg/mL. LP were then added to the wells at the desired concentration. The medium was inoculated with a final inoculum of 5 × 10^5 CFU/mL. The MIC is the lowest concentration that prevents visible in vitro growth.

Converted amounts (≈) assume the structure as drawn.

Regarding `CN[C@H](CC(C)C)C(=O)N[C@H]1C(=O)N[C@@H](CC(N)=O)C(=O)N[C@H]2C(=O)N[C@H]3C(=O)N[C@H](C(=O)N[C@H](C(=O)O)c4cc(O)cc(O)c4-c4cc3ccc4O)[C@H](O)c3ccc(c(Cl)c3)Oc3cc2cc(c3O[C@@H]2O[C@H](CO)[C@@H](O)[C@H](O)[C@H]2O[C@H]2C[C@](C)(N)[C@H](O)[C@H](C)O2)Oc2ccc(cc2Cl)[C@H]1O` [Vancomycin], the MIC amounted to 32 µg/mL in the assay on E. faecalis V583 [1], 2 µg/mL (≈ 1.38 µM) against VanS-VanRB strain, 32 µg/mL (≈ 22.1 µM) against V583 ΔvanB::vanA and 64 µg/mL (≈ 44.2 µM) with E. faecalis JH2-2 08048. For the same compound, the “vanYB expression induced by vancomycin, in words” value (with vanYB in Svic1; in assay [2]) was “strongly induced” each time. Moreover, the “percentage of muropeptides D-Ala-D-Lac” value stood at 62.0% in the assay with Svic1 and 48.3% with E. faecalis V583 [3].
